These results are taken from US11149036B2, “3-(1H-pyrazol-4-yl)pyridine allosteric modulators of the M4 muscarinic acetylcholine receptor” (Merck Sharp & Dohme Corp., priority 2017, dated 2021).

The target in this assay is T1, human M4 muscarinic acetylcholine receptor (Homo sapiens, UniProt P08173).
T1 construct: expressed in transfected cells; host or cells: CHO-K1
T1 sequence (P08173 1-479): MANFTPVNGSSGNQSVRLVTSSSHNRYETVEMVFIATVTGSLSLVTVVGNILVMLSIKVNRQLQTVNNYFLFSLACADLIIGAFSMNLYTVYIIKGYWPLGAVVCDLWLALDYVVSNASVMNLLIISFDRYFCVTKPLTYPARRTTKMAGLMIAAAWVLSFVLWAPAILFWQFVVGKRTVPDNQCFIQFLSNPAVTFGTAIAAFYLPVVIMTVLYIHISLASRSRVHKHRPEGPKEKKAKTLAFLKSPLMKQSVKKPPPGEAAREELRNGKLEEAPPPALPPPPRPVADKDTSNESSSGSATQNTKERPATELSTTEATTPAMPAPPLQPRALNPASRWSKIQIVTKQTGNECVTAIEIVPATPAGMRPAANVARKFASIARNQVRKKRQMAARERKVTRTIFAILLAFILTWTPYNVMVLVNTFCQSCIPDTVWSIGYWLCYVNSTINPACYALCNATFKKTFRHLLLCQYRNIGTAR
Nature of the assay: human FLIPR-based M4 PAM assay (CHO-K1 cells with human M4 receptor and Gaqi5, calcium dye fluorescence). Format: cell-based. The following applies: inflection point (IP) of dose response curve, acetylcholine added at 20% of maximum response, read-out: M4 FLIPPR Hu IP. Summed up: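 CHO-K1 cells stably expressing human M4 with chimeric Gaqi5, calcium-dye loaded ~1 h at 37° C; compound added at increasing concentrations 4 min before acetylcholine at an EC20 concentration (sometimes a further EC70 addition).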
Consider `O=C1c2cc(-c3ncccc3-c3cnn(CC4(F)CCCC4)c3)ccc2CN1C1CCC1` [Example 139, 2-cyclobutyl-6-(3-(1-((1-fluorocyclopentyl)methyl)-1H-pyrazol-4-yl)pyridin-2-yl)isoindolin-1-one], for which the EC50 was determined as 17 nM.

For the molecule `O=C1c2cc(-c3ncccc3-c3cnn(CC4(F)CCCC4)c3)ccc2CN1CC1CCC1` [Example 140, 2-(cyclobutylmethyl)-6-(3-(1-((1-fluorocyclopentyl)methyl)-1H-pyrazol-4-yl)pyridin-2-yl)isoindolin-1-one], the EC50 is 68 nM.

On to `Cc1nc2cc(-c3nc(C#N)c(C)cc3-c3cnn(CC4(F)CCCC4)c3)ccn2n1` [Example 141, 5-(1-((1-fluorocyclopentyl)methyl)-1H-pyrazol-4-yl)-3-methyl-6-(2-methyl-[1,2,4]triazolo[1,5-a]pyridin-7-yl)picolinonitrile], for which the EC50 came to 50 nM.

`Cc1cc(-c2cnn(CC3(F)CCCC3)c2)c(-c2cnc3c(c2)ncn3C)nc1C#N` [Example 142, 5-(1-((1-fluorocyclopentyl)methyl)-1H-pyrazol-4-yl)-3-methyl-6-(3-methyl-3H-imidazo[4,5-b]pyridin-6-yl)picolinonitrile]: the EC50 turned out to be 104 nM.

As to `Cc1cc(-c2cnn(CC3(F)CCCC3)c2)c(-c2ccn3ncnc3c2)nc1C#N` [Example 143, 6-([1,2,4]triazolo[1,5-a]pyridin-7-yl)-5-(1-((1-fluorocyclopentyl)methyl)-1H-pyrazol-4-yl)-3-methylpicolinonitrile], the EC50 stood at 71 nM.

`CC1(Cn2ncc(-c3ccc(C#N)nc3-c3ccn4ccnc4c3)c2C#N)CCCC1` [Example 144, 5-(5-cyano-1-((1-methylcyclopentyl)methyl)-1H-pyrazol-4-yl)-6-(imidazo[1,2-a]pyridin-7-yl)picolinonitrile]: the EC50 worked out at 54 nM.

As for `COc1cc2ccc(-c3nc(C)ccc3-c3cnn(CC4CCC5(CC5)C4)c3)cc2nn1` (stereo not shown) [Example 145, 3-methoxy-7-(6-methyl-3-(1-(spiro[2.4]heptan-5-ylmethyl)-1H-pyrazol-4-yl)pyridin-2-yl)cinnoline], the EC50 amounted to 92 nM.

In the case of `c1cnc(-c2ccc3cccnc3c2)c(-c2cnn(CC3CCCC3)c2)c1` [Example 147, 7-(3-(1-(cyclopentylmethyl)-1H-pyrazol-4-yl)pyridin-2-yl)quinoline], the EC50 amounted to 50 nM.

On to `Cc1ccc(-c2cnn(CC3CCCC3)c2)c(-c2ccc3c(c2)nc(Cl)n3C)n1` [Example 152, 2-chloro-5-(3-(1-(cyclopentylmethyl)-1H-pyrazol-4-yl)-6-methylpyridin-2-yl)-1-methyl-1H-benzo[d]imidazole], for which the EC50 is 80 nM.

Consider `N#Cc1ccc(-c2cnn(CC3(F)CCCC3)c2)c(-c2ccn3c(Br)cnc3c2)n1` [Example 153, 6-(3-bromoimidazo[1,2-a]pyridin-7-yl)-5-(1-((1-fluorocyclopentyl)methyl)-1H-pyrazol-4-yl)picolinonitrile], for which the EC50 is 23 nM.

For the molecule `Cn1c(Cl)nc2cc(-c3nc(C#N)ccc3-c3cnn(CC4(C)CCCC4)c3)ccc21` [Example 154, 6-(2-chloro-1-methyl-1H-benzo[d]imidazol-5-yl)-5-(1-((1-methylcyclopentyl)methyl)-1H-pyrazol-4-yl)picolinonitrile], the EC50 stood at 44 nM.

For the molecule `COCc1nc2cc(-c3nc(C#N)ccc3-c3cnn(CC4(F)CCCC4)c3)ccn2n1` [Example 155, 5-(1-((1-fluorocyclopentyl)methyl)-1H-pyrazol-4-yl)-6-(2-(methoxymethyl)-[1,2,4]triazolo[1,5-a]pyridin-7-yl)picolinonitrile], the EC50 was determined as 55 nM.

For the molecule `COc1cc2ccc(-c3nc(C)c(C)cc3-c3cnn(CC4(C)CCCC4)c3)cc2nn1` [Example 157, 7-(5,6-dimethyl-3-(1-((1-methylcyclopentyl)methyl)-1H-pyrazol-4-yl)pyridin-2-yl)-3-methoxycinnoline], the EC50 turned out to be 7 nM.
